Experimental data reported in the supplement of paper PMC10307832.

Key:
Assay in all cases: relative viability (nuclei count vs DMSO), 5 days (fraction); higher = more cells survive
IMD-0354 + Olaparib = compound: O=C(Nc1cc(C(F)(F)F)cc(C(F)(F)F)c1)c1cc(Cl)ccc1O [IMD-0354] + O=C(c1cc(Cc2n[nH]c(=O)c3ccccc23)ccc1F)N1CCN(C(=O)C2CC2)CC1 [Olaparib] (partner 8 µM)
How it was run: (§1)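 One day after seeding in 1536-well plates, lung cancer cell lines were dosed by pin tool. Dosing was either single-drug or a fixed anchor-drug dose plus five library-drug doses (not always all listed) in √10 steps. After 5 days, nuclei were stained in one fix-and-stain step and counted on 4× images, and relative viability is the nuclei count of treated wells over that of vehicle wells, given as the median of duplicate plates.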

IMD-0354 + Vorinostat = compound: O=C(Nc1cc(C(F)(F)F)cc(C(F)(F)F)c1)c1cc(Cl)ccc1O [IMD-0354] + O=C(CCCCCCC(=O)Nc1ccccc1)NO [Vorinostat] (partner 1 µM)
How it was run: as §1

CX-5461 + Decitabine = compound: Cc1cnc(CNC(=O)c2c(=O)c3ccc(N4CCCN(C)CC4)nc3n3c2sc2ccccc23)cn1 [CX-5461] + Nc1ncn([C@H]2C[C@H](O)[C@@H](CO)O2)c(=O)n1 [Decitabine] (partner 2 µM)
How it was run: as §1

IMD-0354 + Linsitinib = compound: O=C(Nc1cc(C(F)(F)F)cc(C(F)(F)F)c1)c1cc(Cl)ccc1O [IMD-0354] + C[C@]1(O)C[C@@H](c2nc(-c3ccc4ccc(-c5ccccc5)nc4c3)c3c(N)nccn32)C1 [Linsitinib] (partner 1 µM)
How it was run: as §1

Cell Line: UMC-11
- relative viability (IMD-0354 + Olaparib; first compound 0.04 µM): 0.368
- relative viability (IMD-0354 + Olaparib; first compound 0.1265 µM): 0.332
- relative viability (IMD-0354 + Olaparib; first compound 0.4 µM): 0.278
- relative viability (IMD-0354 + Olaparib; first compound 1.265 µM): 0.182
- relative viability (IMD-0354 + Olaparib; first compound 4 µM): 0.178
- relative viability (IMD-0354 + Vorinostat; first compound 0.04 µM): 0.39
- relative viability (IMD-0354 + Vorinostat; first compound 0.1265 µM): 0.407
- relative viability (IMD-0354 + Vorinostat; first compound 0.4 µM): 0.278
- relative viability (IMD-0354 + Vorinostat; first compound 1.265 µM): 0.189
- relative viability (IMD-0354 + Vorinostat; first compound 4 µM): 0.239
- relative viability (CX-5461 + Decitabine; first compound 0.01 µM): 0.611
- relative viability (CX-5461 + Decitabine; first compound 0.03162 µM): 0.464
- relative viability (CX-5461 + Decitabine; first compound 0.1 µM): 0.497
- relative viability (CX-5461 + Decitabine; first compound 0.3162 µM): 0.301
- relative viability (CX-5461 + Decitabine; first compound 1 µM): 0.36
- relative viability (IMD-0354 + Linsitinib; first compound 0.04 µM): 1.04
- relative viability (IMD-0354 + Linsitinib; first compound 0.1265 µM): 1.04
- relative viability (IMD-0354 + Linsitinib; first compound 0.4 µM): 0.559
- relative viability (IMD-0354 + Linsitinib; first compound 1.265 µM): 0.254
- relative viability (IMD-0354 + Linsitinib; first compound 4 µM): 0.285
